This note sets out measurements from PubChem BioAssay (NCI).

Some test systems named below: NCI-H226 lung; K-562 leukemia; MDA-MB-231 breast; SF-268 CNS; OVCAR-4 ovarian; SW-620 colon; SK-MEL-28 melanoma; T-47D breast; SNB-75 CNS; OVCAR-8 ovarian.
What all share (test): growth of human tumour cells (NCI), 48 h

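Results reflect a 48-hour exposure of cells in 96-well plates to compound at five concentrations. The concentration for 50% growth inhibition is given as GI50. Definition used: TGI = concentration required for complete inhibition of growth.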

In the case of `COc1ccc(C2=C(c3ccc(OC)c(OC)c3)C(=O)N3CCCC3C2)cc1` (configuration not stated), the GI50 in the test with NCI-H226 lung was 43.9 µM; in the test with K-562 leukemia it was 7.32 µM; in the test with MDA-MB-231 breast it was 22 µM; in the test on SF-268 CNS, 9.44 µM; in the test on OVCAR-4 ovarian it was 20.6 µM; in the test on SW-620 colon, 32.5 µM. Moreover, the GI50 is 73.3 µM with SK-MEL-28 melanoma, 42.3 µM in the test with T-47D breast, 16.6 µM in the test with SNB-75 CNS and 21.7 µM in the test with OVCAR-8 ovarian. The TGI in the test with NCI-H226 lung, in the test on K-562 leukemia, in the test on MDA-MB-231 breast, with SF-268 CNS, in the test on OVCAR-4 ovarian and in the test on SW-620 colon was > 100 µM in each case. For the same compound, the TGI in the test with SK-MEL-28 melanoma was > 100 µM; with T-47D breast, > 100 µM; with SNB-75 CNS, > 72.9 µM; in the test with OVCAR-8 ovarian, > 100 µM.

Turning to `COc1ccc(CC(=O)c2ccc(O)cc2O)cc1`, the GI50 in the test on NCI-H226 lung was > 100 µM; with K-562 leukemia, 40.3 µM; with MDA-MB-231 breast, > 100 µM; in the test on SF-268 CNS it was 94.5 µM; in the test on OVCAR-4 ovarian, > 100 µM; in the test with SW-620 colon, > 100 µM. Moreover, the GI50 in the test on SK-MEL-28 melanoma is > 100 µM; in the test on T-47D breast, 56.7 µM; in the test on SNB-75 CNS, > 100 µM; with OVCAR-8 ovarian, > 100 µM. Further, the TGI in the test on NCI-H226 lung, in the test with K-562 leukemia, in the test with MDA-MB-231 breast, in the test on SF-268 CNS, with OVCAR-4 ovarian and with SW-620 colon was > 100 µM in each case. Further, the TGI in the test on SK-MEL-28 melanoma, in the test with T-47D breast, in the test on SNB-75 CNS and in the test with OVCAR-8 ovarian was > 100 µM in each case.

`Nc1c(C(=O)c2cccc(C#CCO)c2)cnn1-c1ccc(F)cc1`: the GI50 in the test with NCI-H226 lung was > 25 µM; with K-562 leukemia, > 25 µM; in the test on MDA-MB-231 breast, > 25 µM; with SF-268 CNS, > 25 µM; in the test on OVCAR-4 ovarian, > 23.3 µM; in the test with SW-620 colon, > 25 µM. Besides, the GI50 in the test with SK-MEL-28 melanoma, with T-47D breast, in the test on SNB-75 CNS and in the test on OVCAR-8 ovarian was > 25 µM throughout. The TGI with NCI-H226 lung, in the test on K-562 leukemia, in the test on MDA-MB-231 breast, in the test with SF-268 CNS, in the test on OVCAR-4 ovarian and in the test on SW-620 colon was > 25 µM each time. The TGI in the test with SK-MEL-28 melanoma, with T-47D breast, with SNB-75 CNS and with OVCAR-8 ovarian was > 25 µM each time.

On to `CC[C@H](CO)Nc1nc(NCc2ccccc2)c2ncn(C(C)C)c2n1`, for which the TGI in the test on NCI-H226 lung was > 93.7 µM; in the test with K-562 leukemia, > 100 µM; in the test with MDA-MB-231 breast, > 100 µM; with SF-268 CNS it was > 75.1 µM; in the test with OVCAR-4 ovarian it was > 88.5 µM; in the test on SW-620 colon it was > 100 µM. Besides, the TGI is 74.9 µM in the test on SK-MEL-28 melanoma, > 84.2 µM with T-47D breast, 30.6 µM in the test with SNB-75 CNS and > 100 µM with OVCAR-8 ovarian. In addition, the GI50 was 40.3 µM in the test on K-562 leukemia; 32.2 µM with MDA-MB-231 breast; 26.8 µM in the test on OVCAR-4 ovarian; 49.3 µM with SW-620 colon; 21.5 µM with SK-MEL-28 melanoma; 21.7 µM in the test on T-47D breast. Moreover, the GI50 in the test on OVCAR-8 ovarian is 29.3 µM.

As for `COC(=N)c1c(N)[n+]([O-])c2ccc(F)cc2[n+]1[O-]`, the GI50 with NCI-H226 lung, in the test on K-562 leukemia, in the test on MDA-MB-231 breast, in the test on SF-268 CNS, with OVCAR-4 ovarian and in the test with SW-620 colon was > 100 µM in each case. Moreover, the GI50 is > 100 µM in the test with SK-MEL-28 melanoma, > 100 µM with T-47D breast, 96.2 µM with SNB-75 CNS and > 100 µM in the test with OVCAR-8 ovarian. The TGI with NCI-H226 lung, in the test with K-562 leukemia, in the test with MDA-MB-231 breast, in the test with SF-268 CNS, in the test with OVCAR-4 ovarian and with SW-620 colon was > 100 µM each time. The TGI in the test with SK-MEL-28 melanoma, with T-47D breast, with SNB-75 CNS and in the test on OVCAR-8 ovarian was > 100 µM each time.

Regarding `O=[N+]([O-])c1ccc(N2CCC(CCCC3CCN(c4ccc([N+](=O)[O-])cc4[N+](=O)[O-])CC3)CC2)c([N+](=O)[O-])c1`, the TGI was determined as 56.6 µM in the test on NCI-H226 lung; 55.9 µM in the test on K-562 leukemia; 36 µM with MDA-MB-231 breast; 42.6 µM in the test on SF-268 CNS; 33.4 µM in the test on OVCAR-4 ovarian; 57.4 µM with SW-620 colon. Moreover, the TGI was found to be 28.9 µM in the test on SK-MEL-28 melanoma, 29.2 µM with T-47D breast, 32.8 µM in the test with SNB-75 CNS and 33.3 µM in the test on OVCAR-8 ovarian.

As to `COC(=O)Nc1nc2ccc(Oc3cccc(NC(=O)Nc4cc(C(F)(F)F)ccc4F)c3)cc2[nH]1`, the GI50 with NCI-H226 lung was > 15.3 µM; with K-562 leukemia, 0.452 µM; with MDA-MB-231 breast it was 11.4 µM; in the test on SF-268 CNS, 18.5 µM; with OVCAR-4 ovarian it was 17.6 µM; in the test with SW-620 colon, 10.3 µM. The GI50 is 11.3 µM in the test on SK-MEL-28 melanoma, 8.64 µM with T-47D breast, 8.53 µM in the test on SNB-75 CNS and > 25 µM in the test on OVCAR-8 ovarian. Further, the TGI in the test on NCI-H226 lung, in the test on K-562 leukemia, with MDA-MB-231 breast, in the test with SF-268 CNS, in the test on OVCAR-4 ovarian and in the test on SW-620 colon was > 25 µM each time. In addition, the TGI in the test on SK-MEL-28 melanoma, in the test on T-47D breast, in the test with SNB-75 CNS and with OVCAR-8 ovarian was > 25 µM throughout.

As for `Cc1[nH]c2ccc(F)cc2c1-c1nc2c3cccnc3c3ncccc3c2[nH]1`, the GI50 in the test on NCI-H226 lung was 0.351 µM; with K-562 leukemia, 0.353 µM; with MDA-MB-231 breast, 0.277 µM; in the test with SF-268 CNS it was 0.205 µM; in the test with OVCAR-4 ovarian, 0.0966 µM; with SW-620 colon, 0.374 µM. The GI50 is 0.36 µM with SK-MEL-28 melanoma, 0.357 µM in the test with T-47D breast, 0.422 µM with SNB-75 CNS and 0.345 µM in the test on OVCAR-8 ovarian. Further, the TGI in the test with NCI-H226 lung, in the test on K-562 leukemia, in the test with MDA-MB-231 breast, in the test on SF-268 CNS, in the test on OVCAR-4 ovarian and in the test with SW-620 colon was > 100 µM throughout. Also, the TGI in the test with SK-MEL-28 melanoma, in the test on T-47D breast, with SNB-75 CNS and in the test on OVCAR-8 ovarian was > 100 µM each time.
